From PubChem BioAssay AID520 (NMMLSC, 2006) come the findings set out here.

Active and inactive are the calls of the source. How the calls were made is not given here.

The target of this assay is N-formyl peptide receptor 2 (Homo sapiens) (UniProt P25090). Put plainly: FPRL1 binding inhibitor potency, dose response, cell-based, FPR counter-screen, fluorescent ligand (AID 520). The note with it: FPRL1-expressing cells, fluorescent ligand binding inhibition; for Ki: measured here: FPRL1 binding Ki.
Sequence of N-formyl peptide receptor 2 (Homo sapiens) (P25090 whole entry, looked up): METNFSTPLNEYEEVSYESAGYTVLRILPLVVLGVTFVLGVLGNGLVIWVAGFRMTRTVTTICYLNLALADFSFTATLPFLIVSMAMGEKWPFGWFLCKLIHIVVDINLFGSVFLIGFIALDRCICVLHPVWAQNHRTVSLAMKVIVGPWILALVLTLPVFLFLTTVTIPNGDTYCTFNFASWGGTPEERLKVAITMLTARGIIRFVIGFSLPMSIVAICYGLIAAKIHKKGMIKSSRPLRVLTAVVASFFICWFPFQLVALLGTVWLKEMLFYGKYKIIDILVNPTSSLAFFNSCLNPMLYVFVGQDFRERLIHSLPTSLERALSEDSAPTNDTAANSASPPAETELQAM

Take `COC(=O)c1[nH]c(C)c(/C(O)=C2\C(=O)C(=O)N(CCN3CCOCC3)C2c2cccnc2)c1C` (stereo not drawn): the IC50 was > 66.7 µM (inactive) and the inhibition constant Ki was above 40.3 µM.
The compound `CCc1nnc(NC(=O)CSc2nnc(-c3cc4ccccc4cc3O)n2CC)s1` came in with a Ki above 40.3 µM.
Still for that read-out and setting: the figure for `Cc1nn(-c2nc3ccccc3s2)c(C)c1Oc1ccccc1O` is above 40.3 µM; for `Cc1cc2oc(C(=O)NC3CCS(=O)(=O)C3)c(C)c2cc1C` (stereo not drawn) it is above 40.3 µM.
Compound `C=CCn1c(NC(=O)c2ccccc2)c(C#N)c2nc3ccccc3nc21` came in with an inhibition constant Ki above 40.3 µM.
For `CCCOc1ccc(C2C(C(=O)c3ccco3)=C(O)C(=O)N2CCCn2ccnc2)cc1` (stereo not drawn), the IC50 was > 66.7 µM (inactive) and the Ki is above 40.3 µM.
The compound `CCn1cc(C(=O)NC2CCC(C)CC2)c(=O)c2cc(S(=O)(=O)N3CCCCC3)ccc21` (stereo not drawn) yielded an inhibitory constant (Ki) above 40.3 µM.
The compound `O=C(O)C1CCCCC1C(=O)Nc1ccccc1Cl` (stereo not drawn) gave a Ki above 40.3 µM.
With `O=C(C1=C(O)C(=O)N(Cc2ccccc2)C1c1cccnc1)c1ccco1` (stereo not drawn), the IC50 was > 66.7 µM (inactive) and the Ki is above 40.3 µM.
As to `COC(=O)c1[nH]c(C)c(/C(O)=C2\C(=O)C(=O)N(CCCN3CCOCC3)C2c2ccccn2)c1C` (stereo not drawn), the IC50 is > 66.7 µM (inactive) and the inhibition constant (Ki) was above 40.3 µM.
As for `CSc1ccccc1NS(=O)(=O)c1ccccc1`, the Ki is above 40.3 µM.
In turn, `Cc1ccc(NC(=O)C2C(=O)N(CCO)C3(C)CC2c2ccccc2O3)cc1` (stereo not drawn) registered an inhibition constant Ki above 40.3 µM.
The same measure, in the same setting: the figure for `Cc1nc2c(-c3ccc(F)cc3)c(C)nn2c(C)c1CCC(=O)NC(C)CCc1ccco1` (stereo not drawn) is above 40.3 µM; for `Cc1cccc(OCC(=O)Nc2cc(C)ccc2O)c1` it is above 40.3 µM.
Still for that read-out and setting: the figure for `CCOc1ccccc1NC(=O)CSc1nccn1-c1ccccc1` is above 40.3 µM.
`CNc1nn(-c2cccc(Cl)c2)nc1N` gave a Ki of 11 µM.
As for `Cc1ccc(C2/C(=C(/O)c3cnn(-c4ccccc4)c3C)C(=O)C(=O)N2CCN2CCOCC2)o1` (stereo not drawn), the IC50 is > 66.7 µM (inactive) and the Ki is above 40.3 µM.
The compound `CCCc1cc(=O)n2[nH]c(C)c(-c3ccccc3)c2n1` came in with an inhibitory constant (Ki) above 40.3 µM.
The same measure, in the same setting: the figure for `COc1ccc(-n2c(Cc3cccn3C)nnc2SCC(=O)Nc2ccc(Cl)cc2)cc1` is above 40.3 µM.
Same read-out and setting: the figure for `C=CCn1c(SCCCC)nc(O)cc1=O` is above 40.3 µM; for `COc1ccccc1Oc1c(C)oc2cc(OC(=O)c3ccco3)ccc2c1=O` it is above 40.3 µM.
Turning to `O=C1CCCC(O)=C1C(C#Cc1ccccc1)C1=C(O)CCCC1=O`, the IC50 was > 66.7 µM (inactive) and the Ki was above 40.3 µM.
The compound `O=C(NCCN1CCOCC1)NC1(C(F)(F)F)Oc2ccc(Cl)cc2O1` (stereo not drawn) gave a Ki above 40.3 µM.
Compound `CCOC(=O)c1sc(=S)n2c1[nH]c(=O)c1ccc(C(=O)OC)cc12` had a Ki above 40.3 µM.
In the case of `COc1cccc(C2C(C(=O)c3cc4ccccc4o3)=C(O)C(=O)N2c2cc(C)on2)c1OC` (stereo not drawn), the IC50 was > 66.7 µM (inactive) and the inhibition constant (Ki) was above 40.3 µM.
For `CC1=C(C(=O)OC(C)C)[C@]2(C(=O)N(CC(N)=O)c3ccccc32)C(C#N)=C(N)O1`, in that order: > 66.7 µM (inactive) and above 40.3 µM.
As for `Cc1ccc(/C(O)=C2\C(=O)C(=O)N(CC(C)O)C2c2ccc(N(C)C)cc2)cc1` (stereo not drawn), the IC50 is > 66.7 µM (inactive) and the Ki was above 40.3 µM.
With `CCc1cc2c(=O)c(-c3nc4ccccc4n3C)c(COCC(=O)O)oc2cc1OC(=O)C(C)(C)C`, the Ki was above 40.3 µM.
With `COc1cc(C2C(C(=O)c3ccco3)=C(O)C(=O)N2c2cc(C)on2)cc(Br)c1O` (stereo not drawn), the IC50 is > 66.7 µM (inactive) and the Ki was above 40.3 µM.
Consider `CCC(C)(C(=O)NC1CCCC1)N(CC1CCCO1)C(=O)c1ccc2c(c1)OCO2` (stereo not drawn), for which the Ki was above 40.3 µM.
`CCCCCNC(=O)c1ccc2c(=O)[nH]c3c(C(=O)NCC4CCCO4)sc(=S)n3c2c1` (stereo not drawn): the inhibitory constant (Ki) is above 40.3 µM.
With `COc1ccc(OC)c(C2/C(=C(/O)c3ccccc3)C(=O)C(=O)N2Cc2ccco2)c1` (stereo not drawn), the IC50 was > 66.7 µM (inactive) and the inhibitory constant (Ki) was above 40.3 µM.
In turn, `CCOC(=O)c1c(-c2ccc(-c3ccccc3)cc2)csc1NC(=O)C1C2CCC(O2)C1C(=O)O` (stereo not drawn) displayed an inhibition constant Ki above 40.3 µM.
As to `CCOc1cccc(/C(O)=C2/C(=O)C(=O)N(CCOC)C2c2ccc(C)o2)c1` (stereo not drawn), the IC50 is > 66.7 µM (inactive) and the Ki was above 40.3 µM.
Consider `Cc1ccc(NC(=O)C2CCCN2S(=O)(=O)c2cccc3cccnc23)cc1F` (stereo not drawn), for which the Ki was above 40.3 µM.
For `O=C(C1=C(O)C(=O)N(c2ncccn2)C1c1ccc(Cl)c(Cl)c1)c1ccco1` (stereo not drawn), the IC50 is > 66.7 µM (inactive) and the Ki was above 40.3 µM.
As to `CCCNC(=S)Nc1ccc(Nc2ccccc2)cc1`, the Ki was above 40.3 µM.
Regarding `CC(C)CN(CC(C)C)C(=O)CS(=O)(=O)Cc1ccccc1`, the Ki was above 40.3 µM.
For the compound `COc1cccc(C2/C(=C(\O)c3ccc(OC)c(OC)c3)C(=O)C(=O)N2c2cc(C)on2)c1` (stereo not drawn), the IC50 was > 66.7 µM (inactive) and the Ki is above 40.3 µM.
`COc1ccc(NC(=O)C2C3CCC(C3)C2C(=O)O)cc1OC` (stereo not drawn) returned a Ki above 40.3 µM.
For `O=C(NCc1cccnc1)C1c2ccccc2C(=O)N1C1CCCCCCC1` (stereo not drawn), the inhibition constant Ki is above 40.3 µM.
For the compound `Cc1cccc(Nc2ccccc2C(=O)NCc2ccco2)c1C`, the Ki is above 40.3 µM.
The same measure, in the same setting: the figure for `OCc1nc2ccccc2n1CC(O)Cn1ccc2ccccc21` (stereo not drawn) is above 40.3 µM.
For the compound `COc1ccc(-c2cc(C(F)(F)F)nc(N3CCCCC3)n2)cc1OC`, the Ki is above 40.3 µM.
`CC(C)OC(=O)c1cc(NC(=O)C2C3CCC(O3)C2C(=O)O)cc(C(=O)OC(C)C)c1` (stereo not drawn) came in with a Ki above 40.3 µM.
For `CCCNC(=O)CS(=O)(=O)Cc1nc(-c2cccc(OC)c2)oc1C`, the Ki is above 40.3 µM.
Same read-out and setting: with `COc1ccc(S(=O)(=O)NC(C)C(=O)Nc2cccc(C(C)=O)c2)cc1` (stereo not drawn) the figure was above 40.3 µM.
As for `COc1ccc(OC)c(C(=O)c2nc3c(n2O)CCCCC3)c1`, the Ki is above 40.3 µM.
Consider `COc1ccc(CC(=O)Nc2ccc(-c3nnc(-c4ccc(C)cc4)o3)cc2)cc1`, for which the Ki is above 40.3 µM.
`CN(C)c1nc(N(C)C)nc(N(C)C)n1` showed an inhibitory constant (Ki) above 40.3 µM.
Same read-out and setting: with `CC1CCN(S(=O)(=O)c2ccc3c(c2)oc(=O)n3CC(=O)NCc2ccc3c(c2)OCO3)CC1` the figure was above 40.3 µM.
For the compound `COCCCN1C(=O)C(=O)/C(=C(/O)c2ccccc2)C1c1ccc2c(c1)OCO2` (stereo not drawn), the IC50 was > 66.7 µM (inactive) and the inhibition constant Ki is above 40.3 µM.
As for `CCOC(=O)Cc1cc(=O)n2[nH]c(C)c(-c3ccccc3)c2n1`, the Ki is above 40.3 µM.
Consider `Cc1cc(SCC(N)=O)nc(SCC(=O)c2ccccc2)n1`, for which the Ki was above 40.3 µM.
Take `CCOC(=O)CCn1nc(-c2ccc(Cl)cc2)cc1N`: the inhibition constant (Ki) is above 40.3 µM.
Compound `O=C(O)CCCNc1cc(N2CCC3(CC2)OCCO3)c2noc3c2c1C(=O)c1ccccc1-3` yielded a Ki of 6.6 µM.
For `CCOc1ccc(/C(O)=C2/C(=O)C(=O)N(CC3CCCO3)C2c2ccc(C)o2)cc1` (stereo not drawn), the IC50 was > 66.7 µM (inactive) and the Ki is above 40.3 µM.
Turning to `Cc1ccc(C)c(/C(O)=C2\C(=O)C(=O)N(CCCn3ccnc3)C2c2ccncc2)c1` (stereo not drawn), the IC50 is > 66.7 µM (inactive) and the inhibitory constant (Ki) is above 40.3 µM.
On to `Cc1cccc(-n2nc3c(c2NC(=O)c2ccco2)CSC3)c1C`, for which the Ki is above 40.3 µM.
The same measure, in the same setting: with `CCCC(=O)Nc1cc(-c2cn3cccnc3n2)ccc1OC` the figure was 13.8 µM.
`CC1(C)S[C@@H]2[C@H](NC(=O)C(C(=O)O)c3ccccc3)C(=O)N2[C@H]1C(=O)O` (stereo partly drawn) showed a Ki above 40.3 µM.
`COc1ccccc1-c1c(C)oc2cc(OC(=O)c3ccco3)ccc2c1=O` displayed a Ki above 40.3 µM.
With `Cc1ccc(Nc2nc(C3CC3)cs2)cc1`, the Ki is above 40.3 µM.
As to `Cc1cc(N2C(=O)C(O)=C(C(=O)c3ccco3)C2c2cccnc2)no1` (stereo not drawn), the IC50 is > 66.7 µM (inactive) and the Ki was above 40.3 µM.
Regarding `Cc1ccc(/C(O)=C2\C(=O)C(=O)N(c3cc(C)on3)C2c2cccc(Br)c2)cc1` (stereo not drawn), the IC50 was > 66.7 µM (inactive) and the Ki was above 40.3 µM.
`CCCOc1ccc2c(=O)c(N3C(=O)c4ccccc4C3=O)c(C)oc2c1` came in with a Ki above 40.3 µM.
Same read-out and setting: the figure for `COc1cc2c3c(c1)/C(=C1/SC(NC(C)=O)=NC1=O)C(=O)N3C(C)(C)C=C2C` is above 40.3 µM.
As for `CCOc1cccc(/C(O)=C2/C(=O)C(=O)N(Cc3cccnc3)C2c2ccco2)c1` (stereo not drawn), the IC50 is > 66.7 µM (inactive) and the Ki was above 40.3 µM.
On to `Cc1cccc(C2CC(c3ccc(Cl)cc3)Nc3nc(N)nn32)c1` (stereo not drawn), for which the Ki was above 40.3 µM.
On to `O=C(C1=C(O)C(=O)N(c2ncccn2)C1c1cccc(Cl)c1)c1ccco1` (stereo not drawn), for which the IC50 is > 66.7 µM (inactive) and the inhibitory constant (Ki) was above 40.3 µM.
On to `Cc1ccc(C2C3=C(CC(C)(C)CC3=O)Nc3[nH]c(=S)[nH]c(=O)c32)cc1` (stereo not drawn), for which the IC50 was > 66.7 µM (inactive) and the inhibition constant (Ki) is above 40.3 µM.
On to `Cc1ccc(F)c(NC(=O)C2CCCCC2C(=O)O)c1` (stereo not drawn), for which the inhibition constant Ki was above 40.3 µM.
Regarding `CCC(Sc1nc2c(c(=O)[nH]1)CCC2)C(=O)Nc1cccc(OC)c1` (stereo not drawn), the Ki is above 40.3 µM.
With `O=C(C1=C(O)C(=O)N(Cc2ccccc2)C1c1ccncc1)c1ccco1` (stereo not drawn), the IC50 is > 66.7 µM (inactive) and the inhibition constant (Ki) is above 40.3 µM.
For the compound `C=CCN1C(=O)C2(/C(=C(\O)c3ccc4c(c3)OCCO4)C(=O)C(=O)N2CCCOC)c2ccccc21` (stereo not drawn), the IC50 is > 66.7 µM (inactive) and the inhibition constant (Ki) was above 40.3 µM.
Regarding `CCc1nn2c(=O)cc(CSc3nc4sc5c(c4c(=O)n3C)CCCC5)nc2s1`, the Ki was above 40.3 µM.
`CCCc1nc2ccccc2c2nc(N)nn12` displayed an inhibition constant (Ki) above 40.3 µM.
On the same count and under the same terms, the figure for `Clc1ccc(Cc2nn3c(-c4ccncc4)nnc3s2)cc1` is above 40.3 µM; for `Cc1ccc(NC(=O)c2oc3ccc(S(=O)(=O)N4CCOCC4)cc3c2C)cc1C` it is above 40.3 µM; for `CCCCn1c(NC(=O)CC)c(C#N)c2nc3ccccc3nc21` it is above 40.3 µM.
Turning to `CCOc1ccc(C2C(C(=O)c3ccco3)=C(O)C(=O)N2Cc2cccnc2)cc1` (stereo not drawn), the IC50 was > 66.7 µM (inactive) and the inhibition constant Ki is above 40.3 µM.
In the case of `COc1ccc(C)cc1NC(=O)C1CCCCC1C(=O)O` (stereo not drawn), the inhibition constant (Ki) is above 40.3 µM.
As for `CCc1c(C)nc2c(C#N)c(C)[nH]n2c1=O`, the Ki was above 40.3 µM.
